What was measured:
[1] = biological target: T1, Recombinant human MT1 -MMP (MMP-14) (Homo sapiens, UniProt P50281); assay: β-casein degradation by MT1-MMP; type: biochemical; conditions: single agent, 2 μM (suboptimal)
T1 construct: purchased In Vitro-Tek, Berlin, Germany
Method: Also, suboptimal inhibitory doses of CMT's and bisphosphonate, alone and in combination, were tested on pure human recombinant MT1 -MMP and MMP-9 activities using a β-casein-degradation assay.
Recombinant human ([…]) MT1 -MMP (also called MMP-14) (In Vitro-Tek, Berlin, Germany) was pretreated with buffer (none), 2 μM CMT-3 and 2 μM bisphosphonate clodronate (clodrinate) and combinations of 2 μM CMT-3 and 2 μM clodrinate for 1 h at 37° C. Subsequently, substrate β-casein (52 μM) was added to the incubation mixtures, and incubations continued for 60 min at 37° C.

[2] = system: osteoclast gelatinase; assay: Inhibition of osteoclast gelatinase ([3H-methyl] gelatin degradation by culture media); type: biochemical, chicken
Method: Post-incubation media from cultured chicken osteoclasts were partially-purified, then incubated with [^3 H-methyl] gelatin for 4 hours at 37° C. in the presence of 1.2 mM APMA to activate any latent Pro-gelatinase. The incubations were carried out in the presence (or absence) of several different concentrations (0.001-1000 μM) of a bisphosphonate, Didronel (Etidronic Acid); where appropriate, CMT-1 was added at a final concentration of 50 μM. After the 4 hour incubation, the reaction was stopped by the addition of 45% Trichloroacetic acid and carrier gelatin, the mixture was centrifuged, and aliquots of the supernatant, containing the radiolabeled gelatin degradation fragments, were counted in a liquid scintillation spectrometer.

[3] = system: collagenase; assay: Gingival collagenase activity ([3H-methyl] collagen substrate, SDS-PAGE/fluorography) in extracts from treated LPS-injected rats; type: in vivo, rat; conditions: Example 3; total collagenase after 1.2 mM APMA activation; vs untreated LPS-injected rats; CMT-8 1 mg/day, clodronate 1 mg/week
Method: (§1) LPS (lipopolysaccharide)-induced periodontitis rat model: Twenty four hours before treatment, the rats were injected into the upper anterior gingivae and into the palatal papillae between 1st and 2nd upper molars with 10 μL of LPS (1 mg/ml) or saline solution, for a total of 10 μg LPS per site injected. The LPS injections were repeated every other day to complete the three injections.
(§2) On day 7, all rats were anesthetized, blood samples were collected by cardiac puncture and rats were sacrificed. Tooth mobility was checked and the gingival tissue was dissected and stored at -80° C. for subsequent enzyme analysis. The jaws were defleshed for bone loss determination.
In a third experiment, 30 adult male rats were distributed into the following experimental groups: saline-injected group; groups injected with endotoxin and then administered no drug, CMT-8 alone (1 mg/day), clodronate alone (1 mg/week), or a combination of the same sub-optimal doses of both drugs. The experiment was terminated on day 7. As described above, the gingival tissues were dissected, extracted and the partially-purified extracts analyzed for neutral proteinase (elastase and matrix metalloproteinase) activities, and both tooth mobility and alveolar bone loss were assessed. […]

[4] = system: LPS-injected rats; assay: Tooth mobility in LPS-induced periodontitis rat model; type: in vivo; conditions: for effect on tooth mobility / effect on pathologic tooth mobility: Examples 1 and 2; for effect on pathologic tooth mobility: 2 mg; for reduction in tooth mobility: Example 3, day 7, vs untreated LPS-injected rats, CMT-8 1 mg/day oral, clodronate 1 mg/week s.c., single agents not statistically significant, combination p<0.05; for tooth mobility relative to the level in saline-injected control rats: Example 3, single agents at sub-optimal dose
Source text: (§3) The activity of combinations of various tetracyclines and bisphosphonates was investigated in vivo. […] This procedure produces marked inflammation in the periodontal tissues and induces elevated levels of tissue-destructive matrix metalloproteinases (MMPs) and serine proteinases such as elastase in the gingiva leading to severe alveolar bone resorption and bone loss around the affected teeth, all within the 7-day experimental protocol. In brief, adult male rats with this experimentally-induced inflammatory disease were either left untreated, or treated with sub-optimal doses of (1) a CMT by itself; (II) a bisphosphonate by itself, or (III) a combination of (I) and (II). At the end of the experimental protocol, tooth mobility and alveolar bone loss, and levels of various tissue destructive MMP collagenases and gelatinases and serine enzymes in the gingiva, were measured.
(§4) For in vivo Examples, Thirty male Sprague-Dawley rates were distributed into 5 groups as follows:
Group 1: Normal. Saline injected+placebo therapy (CMC)
Group 2: LPS. LPS injected+placebo (CMC)
Group 3: CMT-8. LPS injected+CMT-8 (1 mg/day)
Group 4: Clodronate. LPS injected+Clodronate (1 mg/week)
Group 5: Combo. LPS+CMT-8 (1 mg/day)+Clodronate (1 mg/week)
(§5) The treatments were administered by oral gavage once per day (CMT-8) throughout the entire 7 day period, or by a single subcutaneous injection (clodrinate).
as §1, §2
(§6) The first experiment was designed to select sub-optimal doses of both CMT-8 (a chemically-modified, non-antibacterial tetracycline) and clodronate (a bisphosphonate) in the endotoxin-induced bone loss model. Groups of rats (n=5-6 rats/group) were anesthetized and injected directly into the gingival tissues with either saline (control group) or with LPS endotoxin every other day over a 7-day time period. Twenty-four hours after the first injection, groups of rats were administered by oral gavage either 0, 0.5mg, 1 mg, or 2mg CMT-8 daily for the next 6 days. At the end of the experiment, the rats were anesthetized, blood was drawn by intracardiac puncture, the rats were euthanized and the gingival tissues dissected for enzyme analysis. In addition, tooth mobility was scored and, after defleshing the jaws, alveolar bone loss around the teeth was scored morphometrically using a computer-assisted system.
(§7) In a third experiment, 30 adult male rats were distributed into the following experimental groups: saline-injected group; groups injected with endotoxin and then administered no drug, CMT-8 alone (1 mg/day), clodronate alone (1 mg/week), or a combination of the same sub-optimal doses of both drugs. The experiment was terminated on day 7. As described above, the gingival tissues were dissected, extracted and the partially-purified extracts analyzed for neutral proteinase (elastase and matrix metalloproteinase) activities, and both tooth mobility and alveolar bone loss were assessed.
In FIG. 1, tooth mobility is based on the following scoring system:
1=slight movement (vestibule-palatal)
2=medium movement (vestibule-palatal)
3=severe movement (vertical mobility in and out of socket)

[5] = system: LPS-injected rats; assay: Alveolar bone loss in LPS-induced periodontitis rat model (morphometric analysis of defleshed jaws); type: in vivo; conditions: for effect on pathologic bone loss: 2 mg
Source text: as §3, §4, §5, §1, §2, §6, §7

[6] = 0.5 mg, CMT-8 daily oral gavage, clodronate single subcutaneous injection
[7] = 1 mg (selected sub-optimal dose)
[8] = CMT-8 daily oral gavage, clodronate single subcutaneous injection
[9] = 0.5 mg, CMT-8 daily oral gavage, clodronate single subcutaneous injection, Examples 1 and 2
[10] = 1 mg (selected sub-optimal dose), Examples 1 and 2
[11] = CMT-8 daily oral gavage, clodronate single subcutaneous injection, Examples 1 and 2
[12] = Example 3, day 7, CMT-8 1 mg/day oral, clodronate 1 mg/week s.c.

| SMILES | inhibition of β-casein degradation by MT1-MMP [1] | inhibition of osteoclast gelatinase activity ([2]; Didronel at 0.001, 0.1, 10, and 1000 μM final concentrations) | inhibition of osteoclast gelatinase activity ([2]; 50 μM CMT-1, 4 hours at 37° C., 1.2 mM APMA) | reduction of gingival collagenase activity [3] | effect on tooth mobility [4, 6] | effect on tooth mobility [4, 7] | effect on pathologic tooth mobility [4, 8] | reduction in tooth mobility [4] [%] | tooth mobility relative to the level in saline-injected control rats [4] | effect on alveolar bone loss [5, 9] | effect on alveolar bone loss [5, 10] | effect on pathologic bone loss [5, 11] | effect on alveolar bone loss [5, 12] |
| --- | --- | --- | --- | --- | --- | --- | --- | --- | --- | --- | --- | --- | --- |
| NC(=O)C1=C(O)C2(O)C(=O)C3=C(O)c4c(O)cccc4CC3CC2CC1=O (stereo not drawn) [CMT-3, 6-demethyl-6-deoxy-4-de(dimethylamino)tetracycline] | relative slight inhibition | – | – | – | – | – | – | – | – | – | – | – | – |
| CC(O)(P(=O)(O)O)P(=O)(O)O [Didronel, Etidronic Acid] | – | did not show any detectable inhibition | – | – | – | – | – | – | – | – | – | – | – |
| CC1(O)c2cccc(O)c2C(=O)C2=C(O)C3(O)C(=O)C(C(N)=O)=C(O)CC3CC21 (stereo not drawn) [CMT-1, 4-de(dimethylamino)tetracycline] | – | – | about 79% | – | – | – | – | – | – | – | – | – | – |
| O=P(O)(O)C(Cl)(Cl)P(=O)(O)O [clodronate, dichloromethane diphosphonic acid] | relative slight inhibition | – | – | 22-31% | no significant effects | either no, or barely detectable beneficial effects | essentially returned the pathologic tooth mobility and bone loss, induced by bacteria endotoxin, to control levels | 18 | more than twice the level seen in the control rats | no significant effects | either no, or barely detectable beneficial effects | essentially returned the pathologic tooth mobility and bone loss, induced by bacteria endotoxin, to control levels | reduced alveolar bone loss only slightly, if at all |
| CC1c2cccc(O)c2C(O)=C2C(=O)[C@]3(O)C(O)=C(C(N)=O)C(=O)C[C@@H]3[C@@H](O)[C@@H]21 (stereo partly drawn) [CMT-8, 6-deoxy-5α-hydroxy-4-de(dimethylamino)tetracycline] | – | – | – | 22-31% | no significant effects | either no, or barely detectable beneficial effects | essentially returned the pathologic tooth mobility and bone loss, induced by bacteria endotoxin, to control levels | 18 | more than twice the level seen in the control rats | no significant effects | either no, or barely detectable beneficial effects | essentially returned the pathologic tooth mobility and bone loss, induced by bacteria endotoxin, to control levels | reduced alveolar bone loss only slightly, if at all |

From US5998390A, “Combination of bisphosphonate and tetracycline” (The Research Foundation of State University of New York, priority 1998, dated 1999)
